According to US20090099060A1, “Modulation of line-1 reverse transcriptase” (priority 2004, published 2009):
“Also recorded” adds a separate entry of the source.

Key:
U-2 OS cells [1] = assay: Telomere length (PNA probe) and cell cycle (PI) by flow cytometry in nucleoside-analog-treated U-2 OS cells; type: cell-based, human
Method: (§1) Telomere length in AZT treated and untreated cell lines was measured by flow cytometry with a telomere-specific peptide nucleic acid (PNA) probe^22,23. To determine cell cycle distribution, cells were stained with propidium iodide (PI)^22. […] AZT at the chosen concentration had no effect on telomere length or cell cycle distribution in the HeLa cells (not shown).
Telomere length in untreated (FIG. 4a) and GCV treated cells (FIG. 4b) was measured by flow cytometry with a telomere-specific PNA probe as described above.
To determine cell cycle distribution, cells were stained with propidium iodide (PI).
(§2) Cell lines: All cell lines used in this study were obtained from American Type Culture Collection (Rockville, Md.). The cells origins included osteosarcoma (Saos-2 and U-2 OS), liver ([…]) and uterine cervix (HeLa). Cells were cultured following ATCC recommendation. For treatment of the cells with AZT, the media was supplemented with 0.2 μM of 3′-azido-2′,3′-dideoxythymidine (Sigma)^28.
(§3) Telomere length measurement by flow cytometry: Cell were stained with telomere specific FITC conjugated (C3TA2)3 PNA (Applied Biosystems) probe and contrastained with 0.06 μg/ml PI as described^21.

Saos-2 cells = assay: Telomere length (PNA probe) and cell cycle (PI) by flow cytometry in AZT-treated Saos-2 cells; type: cell-based, human; conditions: Saos-2, AZT 0.2 μM, 14 days
Method: as §1, §2, §3

HeLa cells = assay: Telomere length and cell cycle by flow cytometry in AZT-treated telomerase-positive HeLa cells; type: cell-based, human; conditions: AZT under the same conditions
Method: as §1, §2, §3

U-2 OS cells [2] = assay: Bromodeoxyuridine (BdU) incorporation, rate of DNA synthesis in AZT-treated U-2 OS cells; type: cell-based, human; conditions: AZT for 10, 17 and 40 days
Method: Rate of DNA synthesis was determined by incorporation of 5-bromodeoxyuridine (BdU)^24.
as §2
Bromodeoxyuridine incorporation: Cell staining, for BdU incorporation, was performed using cells which were incubated with […] BrdU (Sigma) for 2.5 h, stained with BU-33 anti-BrdU monoclonal antibodies (Sigma) and FITC labeled Alexa 488 goat anti-mouse IgG (H+ L) (Fab′) fragments (Molecular Probes), contrastained with 50 μg/ml PI (Sigma) and analyzed by flow cytometry as described^24.

[3] = tested on: U-2 OS/ras-V12 s.c. tumors; assay: s.c. tumor growth from U-2 OS/ras-V12 cells in nude mice, AZT in drinking water; type: in vivo; conditions: AZT 2 mg/ml in drinking water from day zero
Description: Exemplary in vivo assays of anti-tumor efficacy of AZT using nude mice subcutaneous (s.c.) tumors grown from the U-2 OS human osteosarcoma cell lines (i.e., xenografts bearing mice) as models are described below.
Human cancerous cells needed for in vivo assays may be prepared, for example, as follows: Telomerase-negative, but ALT positive, U-2 OS human osteosarcoma cell lines are obtained from public sources such as ATCC. Cells are maintained in McCoy 5 media supplemented with 10% fetal calf serum at 37° C. in a humidified atmosphere of 5% CO2. […] Accordingly, activated ras-oncogene expression vector is introduced in near-confluent U-2 OS cells by Lipofectamine 2000% transfection according manufacturer's instructions. One day before transfection U-2 Os cells are seeded at a density 1×10^5 cells in a 6 well-plate. Plasmid pBABE-puro-ras-V12 (available publicly) is linearized by restriction digest with Sca I enzyme. The cells are transfected with the linearized construct and grown in culture. One day after the transfection, cells may be diluted. Then the cells are selected with puromycin ([…]) for 8 days. […]
In one embodiment, impairment of s.c. tumor growth or time to progression rather than decrease in size of an established tumor is assessed. […] Tumors are measured every 2-3 days. […] Tumor volume is calculated with formula 4/3πr^3, where r is the radius of the tumor.

[4] = tested on: telomerase-positive tumors (WM1175 malignant melanoma or HUT292DM lung cancer); assay: Telomerase-positive tumors (WM1175 or HUT292DM cells) in immunodeficient mice treated with AZT; type: in vivo; conditions: AZT at the dose used for inhibiting the growth of the ALT cancer cells
Method: After induction of the tumors, mice in the experimental groups may be treated with AZT. Mice may be injected i.p. twice a day with solution of AZT in PBS with a total daily dose of 10 mg/kg. Mice in the control group may be injected with PBS. Alternatively, AZT at the same daily dose may be given in drinking water. […] As a separate set of controls, telomerase-positive tumors in nude mouse may be induced by injecting the immunodeficient mice with WM1175 (malignant melanoma) or HUT292DM (lung cancer) cells instead of the transformed IIICF/c fibroblast cells.

[5] = U-2 OS, GCV 0.3 μg/ml, 14 days, listed as ganciclovir

For `Cc1cn([C@H]2C[C@H](N=[N+]=[N-])[C@@H](CO)O2)c(=O)[nH]c1=O` [AZT, 3′-azido-2′,3′-dideoxythymidine], which “DNA content (PI staining) compared to untreated cells” value (U-2 OS cells [1]; AZT treated cells at later stages of treatment) is on record?
Its value is “higher DNA content”.

What about the “treatment time after which changes in cell cycle distribution, DNA synthesis and telomere length could be detected” value (U-2 OS cells [1]; U-2 OS, AZT) of the same molecule?
The value was 10 days.

What about the apoptosis (U-2 OS cells [1]; U-2 OS, AZT 0.2 μM, 14 days) of the same molecule?
The apoptosis was “massive apoptosis”.

And the “cell cycle distribution (PI)” value (U-2 OS cells [1]; U-2 OS, AZT 0.2 μM, 14 days)?
Its value is “G2 arrest; also recorded: changes in cell cycle”.

What about the “telomere length (telomere-specific PNA fluorescence)” value (U-2 OS cells [1]; U-2 OS, AZT 0.2 μM, 14 days) of the same molecule?
The value was “telomere shortening; also recorded: decrease in telomere length”.

What about the “telomere length over time of treatment” value (U-2 OS cells [1]; U-2 OS, AZT for 10, 17 and 40 days) of the same molecule?
Its value is “progressive telomere shortening”.

And the apoptosis (Saos-2 cells)?
Its apoptosis is “massive apoptosis”.

What about the “cell cycle distribution (PI)” value (Saos-2 cells) of the same molecule?
Its value is “G2 arrest; also recorded: changes in cell cycle”.

What about the “telomere length (telomere-specific PNA fluorescence)” value (Saos-2 cells) of the same molecule?
The value was “telomere shortening; also recorded: decrease in telomere length”.

And the cell cycle distribution (HeLa cells)?
The cell cycle distribution was “no effect”.

And the telomere length (HeLa cells)?
Its telomere length is “no effect”.

What about the “rate of DNA synthesis (BdU incorporation)” value (U-2 OS cells [2]) of the same molecule?
Its value is “decrease in DNA synthesis”.

And the tumor development [3]?
Its tumor development is “remain tumor free”.

What about the “inhibition of telomerase-positive tumors” value [4] of the same molecule?
Its value is “cannot be inhibited”.

Which apoptosis (U-2 OS cells [1]; U-2 OS, GCV 0.3 μg/ml, 14 days) does the source give for `Nc1nc(O)c2ncn(COC(CO)CO)c2n1` [GCV, ganciclovir] here?
Its apoptosis is “massive apoptosis”.

And the “cell cycle distribution (PI)” value (U-2 OS cells [1]; U-2 OS, GCV 0.3 μg/ml, 14 days)?
Its value is “G2 arrest”.

What about the “telomere length (telomere-specific PNA probe)” value (U-2 OS cells [1]; U-2 OS, GCV 0.3 μg/ml, 14 days) of the same molecule?
The value was “telomere shortening”.

And the “cell cycle distribution (PI)” value (U-2 OS cells [1]; [5])?
Its value is “changes in cell cycle”.

What about the “telomere length (telomere-specific PNA probe)” value (U-2 OS cells [1]; [5]) of the same molecule?
The value was “decrease in telomere length”.
